We go through 27 compounds from patent publication US9815796B2 (Merck Sharp & Dohme Corp., priority 2013, dated 2017).

The target in one experiment is Rhesus PDE2A3 (Macaca mulatta, UniProt B3VTJ2). Description: PDE2 fluorescence polarization (IMAP FP) inhibition assay, rhesus enzyme. Format: biochemical, rhesus macaque. The procedure, abridged:
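IMAP FP (mP from parallel and perpendicular fluorescence against substrate-only control) was read ≥1 h after adding binding reagent. The preceding 60 min room-temperature reaction contained FAM-cAMP (50 nM) and cGMP (1 uM) in pH 7.2 Tris buffer with MgCl2 and DTT. Enzyme was supernatant of sonicated AD293 cells expressing rhesus PDE2A3; compounds were 3-fold titrated, DMSO 1% final.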

The target of another experiment is human PDE2A1 (Homo sapiens (Human), UniProt O00408). Nature of the experiment: IMAP FP PDE selectivity panel, human PDE2A1. In kind it is biochemical. The procedure, abridged: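 IMAP FP format: substrate 50 nM FAM-cAMP plus 1000 nM cGMP, enzyme (insect-cell GST-tagged human PDE2A1) at ~20% conversion, 60 min reaction at room temperature. Apparent inhibition constants calculated from parallel/perpendicular fluorescence with KM 10,000 nM.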
Sequence of human PDE2A1 (O00408 other isoform, or with tags, fused parts or gaps): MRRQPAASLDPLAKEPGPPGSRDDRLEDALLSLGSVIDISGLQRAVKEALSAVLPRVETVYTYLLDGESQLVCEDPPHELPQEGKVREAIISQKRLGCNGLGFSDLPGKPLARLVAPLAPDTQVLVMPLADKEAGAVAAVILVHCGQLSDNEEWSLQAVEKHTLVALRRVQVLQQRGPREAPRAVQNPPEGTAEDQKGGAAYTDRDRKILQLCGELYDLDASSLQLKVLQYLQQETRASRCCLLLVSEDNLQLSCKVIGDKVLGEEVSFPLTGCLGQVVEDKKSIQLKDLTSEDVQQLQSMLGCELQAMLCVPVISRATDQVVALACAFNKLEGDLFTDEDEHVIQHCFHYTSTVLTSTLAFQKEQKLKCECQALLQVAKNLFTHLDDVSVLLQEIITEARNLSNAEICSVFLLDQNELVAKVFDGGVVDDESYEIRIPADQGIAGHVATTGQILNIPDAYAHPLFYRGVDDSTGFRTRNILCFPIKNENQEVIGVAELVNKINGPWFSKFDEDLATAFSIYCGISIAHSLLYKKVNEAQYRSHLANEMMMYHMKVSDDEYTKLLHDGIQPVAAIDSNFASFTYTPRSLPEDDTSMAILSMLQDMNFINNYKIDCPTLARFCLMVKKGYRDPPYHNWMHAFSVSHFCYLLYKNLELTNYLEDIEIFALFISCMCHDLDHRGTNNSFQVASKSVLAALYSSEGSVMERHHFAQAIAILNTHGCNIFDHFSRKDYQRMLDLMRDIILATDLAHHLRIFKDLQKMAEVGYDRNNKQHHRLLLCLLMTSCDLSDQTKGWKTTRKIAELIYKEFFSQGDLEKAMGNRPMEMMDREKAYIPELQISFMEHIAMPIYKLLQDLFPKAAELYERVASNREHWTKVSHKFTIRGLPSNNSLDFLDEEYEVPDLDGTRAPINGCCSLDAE

The mark [1] stands for this setting: Rhesus PDE2, Lab A, read-out: Rhesus PDE2 Ki (nM) - Lab A.
The mark [2] stands for this setting: Human PDE2, Lab A, read-out: Human PDE2 Ki (nM) - Lab A.
Where [3] appears, read: Rhesus PDE2, Lab B, read-out: Rhesus PDE2 Ki (nM) - Lab B.
The mark [4] stands for this setting: Human PDE2, Lab B, read-out: Human PDE2 Ki (nM) - Lab B.

SMILES strings stand for the structures. Like-named read-outs stand apart in the source and are kept apart here.

Sequence of Rhesus PDE2A3 (B3VTJ2 1-941): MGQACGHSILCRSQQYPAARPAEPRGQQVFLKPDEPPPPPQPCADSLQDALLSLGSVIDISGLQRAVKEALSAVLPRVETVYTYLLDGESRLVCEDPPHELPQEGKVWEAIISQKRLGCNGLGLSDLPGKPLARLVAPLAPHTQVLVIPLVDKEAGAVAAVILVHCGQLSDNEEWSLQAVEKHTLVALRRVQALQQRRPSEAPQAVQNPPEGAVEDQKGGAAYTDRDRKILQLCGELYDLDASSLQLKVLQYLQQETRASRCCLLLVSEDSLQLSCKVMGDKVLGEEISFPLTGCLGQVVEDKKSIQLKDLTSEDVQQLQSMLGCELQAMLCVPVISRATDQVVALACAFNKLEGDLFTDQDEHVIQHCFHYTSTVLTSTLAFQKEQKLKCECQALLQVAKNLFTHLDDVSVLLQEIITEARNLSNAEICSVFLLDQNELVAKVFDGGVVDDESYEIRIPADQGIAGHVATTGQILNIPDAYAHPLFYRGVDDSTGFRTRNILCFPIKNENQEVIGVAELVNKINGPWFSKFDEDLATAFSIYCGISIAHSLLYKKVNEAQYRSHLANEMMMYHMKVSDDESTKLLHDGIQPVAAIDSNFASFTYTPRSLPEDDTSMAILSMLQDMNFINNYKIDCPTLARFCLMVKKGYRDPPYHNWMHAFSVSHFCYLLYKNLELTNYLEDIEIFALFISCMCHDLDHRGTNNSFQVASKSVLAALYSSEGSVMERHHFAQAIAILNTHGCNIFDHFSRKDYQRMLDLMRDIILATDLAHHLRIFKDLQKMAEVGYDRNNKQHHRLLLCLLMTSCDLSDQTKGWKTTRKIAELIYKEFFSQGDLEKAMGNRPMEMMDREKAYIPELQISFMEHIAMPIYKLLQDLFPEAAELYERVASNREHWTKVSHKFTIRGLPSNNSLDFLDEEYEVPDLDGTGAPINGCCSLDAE

As to `O=C(N[C@@H](c1ccc(OC(F)(F)F)c(F)c1)C1CC1)c1cc(=O)[nH]c(-c2ccccc2)n1` [Example 176], the Ki at Rhesus PDE2A3 (setting [1]) was found to be 4.8 nM; at human PDE2A1 (setting [2]) it was 3.9 nM.
Turning to `COc1ccc(C(C)(C)c2nc(C(=O)N[C@@H](c3ccc(OC(F)(F)F)cc3)C(C)C)cc(=O)[nH]2)cc1` [Example 494, 2-[1-(4-methoxyphenyl)-1-methylethyl]-N-{(1R)-2-methyl-1-[4-(trifluoromethoxy)phenyl]propyl}-6-oxo-1,6-dihydropyrimidine-4-carboxamide], the Ki is 54 nM at Rhesus PDE2A3 (setting [3]) and 46 nM at human PDE2A1 (setting [4]).
For `CC[C@@H](NC(=O)c1cc(=O)[nH]c(Cc2ccc(OC)c(F)c2)n1)c1ccc(OC(F)(F)F)c(F)c1` [Example 528, 2-(3-fluoro-4-methoxybenzyl)-N-{(1R)-1-[3-fluoro-4-(trifluoromethoxy)phenyl]propyl}-6-oxo-1,6-dihydropyrimidine-4-carboxamide], in that order: 1.2 nM and 1.1 nM.
As to `Cc1nc(C(=O)NC2(c3ccc(SC(F)(F)F)c(F)c3)CC2)cc(=O)[nH]1` [Example 261, N-(1-{3-fluoro-4-[(trifluoromethyl)sulfanyl]phenyl}cyclopropyl)-2-methyl-6-oxo-1,6-dihydropyrimidine-4-carboxamide], the Ki on Rhesus PDE2A3 (setting [1]) was 18 nM; on Rhesus PDE2A3 (setting [3]) it was 37 nM; at human PDE2A1 (setting [4]) it was 33 nM.
In the case of `CC[C@@H](NC(=O)c1cc(=O)[nH]c(-c2ccccc2)n1)c1ccc(OC(F)(F)F)c(F)c1` [Example 172], the Ki on Rhesus PDE2A3 (setting [1]) was 2.7 nM; at human PDE2A1 (setting [2]), 1.9 nM.
For the compound `C[C@@H](NC(=O)c1cc(=O)[nH]c(-c2ncccn2)n1)c1ccc(C2CC2)cc1` [Example 250, N-[(1R)-1-(4-cyclopropylphenyl)ethyl]-6-oxo-1,6-dihydro-2,2′-bipyrimidine-4-carboxamide], the Ki at Rhesus PDE2A3 (setting [1]) was 5.3 nM; on Rhesus PDE2A3 (setting [3]), 5.4 nM; on human PDE2A1 (setting [4]), 6.3 nM.
As to `O=C(N[C@@H](c1ccc(C(F)(F)F)c(F)c1)C1CC1)c1cc(=O)[nH]c(-c2ccccc2)n1` [Example 174, N-{(R)-cyclopropyl[3-fluoro-4-(trifluoromethyl)phenyl]methyl}-6-oxo-2-phenyl-1,6-dihydropyrimidine-4-carboxamide], the values for the Ki at Rhesus PDE2A3 (setting [1]) and at human PDE2A1 (setting [2]) were 5.7 nM and 4.5 nM, respectively.
For `CC(C)(NC(=O)c1cc(=O)[nH]c(C2CC2)n1)c1ccc(OC(F)(F)F)cc1` [Example 295, 2-cyclopropyl-N-{1-methyl-1-[4-(trifluoromethoxy)phenyl]ethyl}-6-oxo-1,6-dihydropyrimidine-4-carboxamide], in that order: 127 nM and 77 nM.
For `C[C@@H](NC(=O)c1cc(=O)[nH]c(C2CC2)n1)c1ccc(OC(F)(F)F)c(F)c1` [Example 296, 2-cyclopropyl-N-{(1R)-1-[3-fluoro-4-(trifluoromethoxy)phenyl]ethyl}-6-oxo-1,6-dihydropyrimidine-4-carboxamide], in that order: 6.3 nM and 3.1 nM.
`CC(C)(NC(=O)c1cc(=O)[nH]c(C2CC2)n1)c1ccc(SC(F)(F)F)cc1` [Example 222, 2-cyclopropyl-N-(1-methyl-1-{4-[(trifluoromethyl)sulfanyl]phenyl}ethyl)-6-oxo-1,6-dihydropyrimidine-4-carboxamide]: the results for the Ki at Rhesus PDE2A3 (setting [1]) and at human PDE2A1 (setting [2]) were 89 nM and 45 nM, respectively.
In the case of `COc1ccc(Cc2nc(C(=O)N[C@@H](c3ccc(OC(F)(F)F)cc3)C(C)C)cc(=O)[nH]2)cc1F` [Example 517, 2-(3-fluoro-4-methoxybenzyl)-N-{(1R)-2-methyl-1-[4-(trifluoromethoxy)phenyl]propyl}-6-oxo-1,6-dihydropyrimidine-4-carboxamide], the Ki on Rhesus PDE2A3 (setting [3]) worked out at 1.3 nM; on human PDE2A1 (setting [4]), 1.7 nM.
As to `COc1ccc([C@@H](C)NC(=O)c2cc(=O)[nH]c(-c3ncccn3)n2)cc1` [Example 86, N-[(1R)-1-(4-methoxyphenyl)ethyl]-6-oxo-1,6-dihydro-2,2′-bipyrimidine-4-carboxamide], the Ki came out at 237 nM at Rhesus PDE2A3 (setting [1]) and 199 nM on human PDE2A1 (setting [2]).
As to `O=C(NCc1ccc(C(F)(F)F)cc1)c1cc(=O)[nH]c(-c2ccccc2)n1` [Example 371, 6-oxo-2-phenyl-N-[4-(trifluoromethyl)benzyl]-1,6-dihydropyrimidine-4-carboxamide], the Ki on Rhesus PDE2A3 (setting [1]) came out at 68 nM; at Rhesus PDE2A3 (setting [3]) it was 150 nM; at human PDE2A1 (setting [4]), 117 nM.
Turning to `O=C(NC1(c2ccc(OC(F)(F)F)cc2)CC1)c1cc(=O)[nH]c(C2CC2)n1` [Example 299, 2-cyclopropyl-6-oxo-N-{1-[4-(trifluoromethoxy)phenyl]cyclopropyl}-1,6-dihydropyrimidine-4-carboxamide], the Ki on Rhesus PDE2A3 (setting [1]) was 14 nM; on human PDE2A1 (setting [2]), 9.1 nM.
For the compound `COc1cc(OC(F)(F)F)ccc1C(C)NC(=O)c1cc(=O)[nH]c(-c2ccccc2)n1` (centres unmarked) [Example 387, N-{1-[2-methoxy-4-(trifluoromethoxy)phenyl]ethyl}-6-oxo-2-phenyl-1,6-dihydropyrimidine-4-carboxamide], the Ki on Rhesus PDE2A3 (setting [3]) amounted to 9.6 nM; at human PDE2A1 (setting [4]), 8.1 nM.
Take `Cc1nc(C(=O)N[C@H](C)c2ccc(OC(F)(F)F)c(F)c2)cc(=O)[nH]1` [Example 22, N-{(1R)-1-[3-fluoro-4-(trifluoromethoxy)phenyl]ethyl}-2-methyl-6-oxo-1,6-dihydropyrimidine-4-carboxamide]: the Ki came out at 13 nM at Rhesus PDE2A3 (setting [1]), 14 nM on Rhesus PDE2A3 (setting [3]), 8.6 nM on human PDE2A1 (setting [2]) and 14 nM on human PDE2A1 (setting [4]).
On to `CC[C@@H](NC(=O)c1cc(=O)[nH]c(-c2ncccn2)n1)c1ccc(OC(F)(F)F)c(F)c1` [Example 89, N-{(1R)-1-[3-fluoro-4-(trifluoromethoxy)phenyl]propyl}-6-oxo-1,6-dihydro-2,2′-bipyrimidine-4-carboxamide], for which the Ki at Rhesus PDE2A3 (setting [1]) came out at 6.4 nM; at Rhesus PDE2A3 (setting [3]), 9.3 nM; at human PDE2A1 (setting [4]), 9.8 nM.
As to `Cc1nc(C(=O)N[C@H](C)c2ccc(SC(F)(F)F)cc2)cc(=O)[nH]1` [Example 66, 2-methyl-6-oxo-N-[(1R)-1-{4-[(trifluoromethyl)sulfanyl]phenyl}ethyl]-1,6-dihydropyrimidine-4-carboxamide], the Ki at Rhesus PDE2A3 (setting [1]) was found to be 11 nM; at human PDE2A1 (setting [2]), 5.8 nM.
Turning to `C[C@@H](NC(=O)c1cc(=O)[nH]c(-c2ncccn2)n1)c1ccc(C(F)(F)F)c(Cl)c1` [Example 110, N-{(1R)-1-[3-chloro-4-(trifluoromethyl)phenyl]ethyl}-6-pxo-1,6-dihydro-2,2′-bipyrimidine-4-carboxamide], the Ki turned out to be 12 nM on Rhesus PDE2A3 (setting [1]) and 7.2 nM on human PDE2A1 (setting [2]).
In the case of `COc1ccc(Cc2nc(C(=O)N[C@@H](c3ccc(C(F)(F)F)c(F)c3)C(C)(C)C)cc(=O)[nH]2)cc1` [Example 466, N-{(1R)-1-[3-fluoro-4-(trifluoromethyl)phenyl]-2,2-dimethylpropyl}-2-(4-methoxybenzyl)-6-oxo-1,6-dihydropyrimidine-4-carboxamide], the Ki was 0.85 nM at Rhesus PDE2A3 (setting [3]) and 0.79 nM on human PDE2A1 (setting [4]).
With `O=C(NC1(c2ccc(OC(F)(F)F)cc2)CC1)c1cc(=O)[nH]c(-c2ncccn2)n1` [Example 285, 6-oxo-N-{1-[4-(trifluoromethoxy)phenyl]cyclopropyl}-1,6-dihydro-2,2′-bipyrimidine-4-carboxamide], the Ki at Rhesus PDE2A3 (setting [1]) and at human PDE2A1 (setting [2]) was 46 nM throughout.
Consider `C[C@@H](NC(=O)c1cc(=O)[nH]c(-c2ccccc2)n1)c1ccc(C(F)(F)F)c(Cl)c1` [Example 190, N-{(1R)-1-[3-chloro-4-(trifluoromethyl)phenyl]ethyl}-6-oxo-2-phenyl-1,6-dihydropyrimidine-4-carboxamide], for which the Ki is 6.4 nM at Rhesus PDE2A3 (setting [1]) and 6.1 nM at human PDE2A1 (setting [2]).
Consider `COc1ccc(Cc2nc(C(=O)N[C@@H](c3ccc(OC(F)(F)F)c(F)c3)C(C)(C)C)cc(=O)[nH]2)cc1F` [Example 506, 2-(3-fluoro-4-methoxybenzyl)-N-{(1R)-1-[3-fluoro-4-(trifluoromethoxy)phenyl]-2,2-dimethylpropyl}-6-oxo-1,6-dihydropyrimidine-4-carboxamide], for which the Ki on Rhesus PDE2A3 (setting [3]) turned out to be 0.92 nM; at human PDE2A1 (setting [4]), 0.8 nM.
As for `CC(C)[C@@H](NC(=O)c1cc(=O)[nH]c(C2CC2)n1)c1ccc(S(F)(F)(F)(F)F)cc1` [Example 247, 2-cyclopropyl-N-{(1R)-2-methyl-1-[4-(pentafluoro-λ^6-sulfanyl)phenyl]propyl}-6-oxo-1,6-dihydropyrimidine-4-carboxamide], the Ki on Rhesus PDE2A3 (setting [1]) was determined as 1.7 nM; at Rhesus PDE2A3 (setting [3]), 2.5 nM; at human PDE2A1 (setting [4]) it was 2.7 nM.
For `CC(C)[C@@H](NC(=O)c1cc(=O)[nH]c(C2CC2)n1)c1ccc(C(F)(F)F)c(F)c1` [Example 251, 2-cyclopropyl-N-{(1R)-1-[3-fluoro-4-(trifluoromethyl)phenyl]-2-methylpropyl}-6-oxo-1,6-dihydropyrimidine-4-carboxamide], in that order: 2 nM, 4 nM and 3.6 nM.
Take `COc1ccc(Cc2nc(C(=O)N[C@@H](c3ccc(C(F)(F)F)cc3)C3CC3)cc(=O)[nH]2)cc1` [Example 481, N-{(R)-cyclopropyl[4-(trifluoromethyl)phenyl]methyl}-2-(4-methoxybenzyl)-6-oxo-1,6-dihydropyrimidine-4-carboxamide]: the Ki at Rhesus PDE2A3 (setting [3]) and at human PDE2A1 (setting [4]) was 1.9 nM each time.
Consider `Cc1nc(C(=O)NC2(c3ccc(SC(F)(F)F)c(F)c3)CCC2)cc(=O)[nH]1` [Example 129, N-(1-{3-fluoro-4-[(trifluoromethyl)sulfanyl]phenyl}cyclobutyl)-2-methyl-6-oxo-1,6-dihydropyrimidine-4-carboxamide], for which the figures for the Ki on Rhesus PDE2A3 (setting [1]) and at human PDE2A1 (setting [2]) were 218 nM and 184 nM, respectively.
